In brackets after ≈: the same amount, converted by molar mass. Like-named read-outs stand apart in the source and are kept apart here.
Legend:
[1] = system: Staphylococcus aureus CCM 4516/08; test: Antibacterial microdilution broth MIC, S. aureus; type: cell-based; settings: Staphylococcus aureus
[2] = system: Staphylococcus epidermidis H 6966/08; test: Antibacterial microdilution broth MIC, S. epidermidis; type: cell-based; settings: Staphylococcus epidermidis
[3] = system: Enterococcus faecalis J 14365/08; test: Antibacterial microdilution broth MIC, E. faecalis; type: cell-based; settings: Enterococcus faecalis, J14365/08; 48 h incubation; read-out: MIC EF 48 h
[4] = system: Escherichia coli CCM 4517; test: Antibacterial microdilution broth MIC, E. coli; type: cell-based; settings: Escherichia coli, CCM4517; 48 h incubation; read-out: MIC EC 48 h
[5] = system: Pseudomonas aeruginosa CCM 1961; test: Antibacterial microdilution broth MIC, P. aeruginosa; type: cell-based; settings: Pseudomonas aeruginosa, CCM1961; 48 h incubation; read-out: MIC PA 48 h
[6] = system: Mycobacterium tuberculosis 331/88 (H37Rv); test: In vitro antimycobacterial MIC, M. tuberculosis; type: cell-based
[7] = system: Mycobacterium avium 330/88; test: In vitro antimycobacterial MIC, M. avium; type: cell-based
[8] = system: Mycobacterium kansasii 235/80; test: In vitro antimycobacterial MIC, M. kansasii 235/80; type: cell-based
M. kansasii 6509/96 = test: In vitro antimycobacterial MIC, M. kansasii clinical isolate; type: cell-based; settings: Mycobacterium kansasii
[9] = system: Candida albicans ATCC 44859; test: Antifungal microdilution broth MIC, C. albicans; type: cell-based; settings: ATCC44859, 48 h incubation, read-out: MIC CA 48 h
Candida tropicalis 156 = test: Antifungal microdilution broth MIC, C. tropicalis; type: cell-based; settings: Candida tropicalis, 156; 48 h incubation; read-out: MIC CT 48 h
Candida krusei E28 = test: Antifungal microdilution broth MIC, C. krusei; type: cell-based; settings: Pichia kudriavzevii, E28; 48 h incubation; read-out: MIC CK 48 h
Candida glabrata 20/I = test: Antifungal microdilution broth MIC, C. glabrata; type: cell-based; settings: Nakaseomyces glabratus, 48 h incubation, read-out: MIC CG 48 h
Trichosporon asahii 1188 = test: Antifungal microdilution broth MIC, T. asahii; type: cell-based; settings: Trichosporon asahii, 1188; 48 h incubation; read-out: MIC TA 48 h
[10] = system: Aspergillus fumigatus 231; test: Antifungal microdilution broth MIC, A. fumigatus; type: cell-based
[11] = system: Lichtheimia corymbifera 272; test: Antifungal microdilution broth MIC, L. corymbifera; type: cell-based; settings: Lichtheimia corymbifera, 272; 48 h incubation; read-out: MIC LC 48 h
[12] = system: Trichophyton interdigitale 445; test: Antifungal microdilution broth MIC, T. interdigitale; type: cell-based; settings: Trichophyton interdigitale; for SI for TI: SI = IC50 (HepG2)/MIC; for MIC: 445
Candida sp. = test: Selectivity index for Candida sp. (IC50 HepG2/MIC); type: cell-based; settings: all Candida species
[13] = system: Klebsiella pneumoniae D 11750/08
[14] = system: ESBL-positive Klebsiella pneumoniae J 14368/08
M. tuberculosis and NTM = test: Antimycobacterial activity, panel; type: cell-based; settings: Mycobacterium tuberculosis; range over all four mycobacterial strains and incubation times; read-out: MIC, M. tuberculosis and NTM
[15] = CCM4516, 48 h incubation, read-out: MIC SA 48 h
[16] = H6966/08, 48 h incubation, read-out: MIC SE 48 h
[17] = 336 h, 14 d incubation, read-out: MIC Mtb. 331/88 14 d
[18] = 504 h, 21 d incubation, read-out: MIC Mtb. 331/88 21 d
[19] = 330/88, 336 h, 14 d incubation, read-out: MIC M. avium 330/88 14 d
[20] = 330/88, 504 h, 21 d incubation, read-out: MIC M. avium 330/88 21 d
[21] = 235/80, 168 h, 7 d incubation, read-out: MIC M. kansasii 235/80 7 d
[22] = 235/80, 336 h, 14 d incubation, read-out: MIC M. kansasii 235/80 14 d
[23] = 235/80, 504 h, 21 d incubation, read-out: MIC M. kansasii 235/80 21 d
[24] = 6509/96, 168 h, 7 d incubation, read-out: MIC M. kansasii 6509/96 7 d
[25] = 6509/96, 336 h, 14 d incubation, read-out: MIC M. kansasii 6509/96 14 d
[26] = 6509/96, 504 h, 21 d incubation, read-out: MIC M. kansasii 6509/96 21 d
[27] = Aspergillus fumigatus, 231, 48 h incubation, read-out: MIC AF 48 h
[28] = 72 h incubation, read-out: MIC TI 72 h
[29] = 120 h incubation, read-out: MIC TI 120 h

Compound	MIC [1, 15]	MIC [2, 16]	MIC [3]	MIC [4]	MIC [5]	MIC [6, 17]	MIC [6, 18]	MIC [7, 19]	MIC [7, 20]	MIC [8, 21]	MIC [8, 22]	MIC [8, 23]	MIC (M. kansasii 6509/96; [24])	MIC (M. kansasii 6509/96; [25])	MIC (M. kansasii 6509/96; [26])	MIC [9]	MIC KP 24 h [13]	MIC KP 48 h [13]	MIC KP-E 24 h [14]	MIC KP-E 48 h [14]	further results
O=S(=O)(Nc1ncccn1)c1ccc(N=Cc2cc(F)ccc2O)cc1 [Compound 2b, 4-[(5-Fluoro-2-hydroxybenzylidene)amino]-N-(pyrimidin-2-yl)benzenesulfonamide]	> 250 µM	> 250 µM	> 250 µM	> 250 µM	> 250 µM	125 µM (≈ 46.5 µg/mL)	125 µM (≈ 46.5 µg/mL)	500 µM (≈ 186 µg/mL)	1000 µM (≈ 372 µg/mL)	62.5 µM (≈ 23.3 µg/mL)	125 µM (≈ 46.5 µg/mL)	250 µM (≈ 93.1 µg/mL)	125 µM (≈ 46.5 µg/mL)	250 µM (≈ 93.1 µg/mL)	250 µM (≈ 93.1 µg/mL)	> 250 µM	>250 µM	>250 µM	>250 µM	>250 µM	MIC (Candida tropicalis 156): > 250 µM; MIC (Candida krusei E28): > 250 µM; MIC (Candida glabrata 20/I): > 250 µM; MIC (Trichosporon asahii 1188): > 250 µM; MIC [10, 27]: > 250 µM; MIC [11]: > 250 µM; SI for TI [12]: inactive; MIC [12, 28]: > 250 µM; MIC [12, 29]: > 250 µM; SI for Candida sp. (Candida sp.): inactive
Cc1ccc(O)c(C=Nc2ccc(S(=O)(=O)Nc3ncccn3)cc2)c1 [Compound 2g, 4-[(2-Hydroxy-5-methylbenzylidene)amino]-N-(pyrimidin-2-yl)benzenesulfonamide]	> 250 µM		> 250 µM	> 250 µM	> 250 µM	125 µM (≈ 46.1 µg/mL)	125 µM (≈ 46.1 µg/mL)	500 µM (≈ 184 µg/mL)	1000 µM (≈ 368 µg/mL)	125 µM (≈ 46.1 µg/mL)	125 µM (≈ 46.1 µg/mL)	250 µM (≈ 92.1 µg/mL)	62.5 µM (≈ 23 µg/mL)	62.5 µM (≈ 23 µg/mL)	125 µM (≈ 46.1 µg/mL)	> 500 µM	>250 µM	>250 µM	>250 µM	>250 µM	MIC ([2]; H6966/08, 24 h, read-out: MIC SE 24 h): 125 µM (≈ 46.1 µg/mL); MIC ([2]; H6966/08, 48 h, read-out: MIC SE 48 h): 125 µM (≈ 46.1 µg/mL); MIC (Candida tropicalis 156): > 500 µM; MIC (Candida krusei E28): > 500 µM; MIC (Candida glabrata 20/I): > 500 µM; MIC (Trichosporon asahii 1188): > 500 µM; MIC [10, 27]: > 500 µM; MIC [11]: > 500 µM; SI for TI [12]: inactive; MIC [12, 28]: > 500 µM; MIC [12, 29]: > 500 µM; SI for Candida sp. (Candida sp.): inactive
O=S(=O)(Nc1ncccn1)c1ccc(N=Cc2c(O)cccc2Cl)cc1 [Compound 2k, 4-[(2-Chloro-6-hydroxybenzylidene)amino]-N-(pyrimidin-2-yl)benzenesulfonamide]	> 250 µM	> 250 µM	> 250 µM	> 250 µM	> 250 µM	125 µM (≈ 48.6 µg/mL)	125 µM (≈ 48.6 µg/mL)	250 µM (≈ 97.2 µg/mL)	250 µM (≈ 97.2 µg/mL)	62.5 µM (≈ 24.3 µg/mL)	125 µM (≈ 48.6 µg/mL)	250 µM (≈ 97.2 µg/mL)	62.5 µM (≈ 24.3 µg/mL)	125 µM (≈ 48.6 µg/mL)	125 µM (≈ 48.6 µg/mL)	> 250 µM	>250 µM	>250 µM	>250 µM	>250 µM	MIC (Candida tropicalis 156): > 250 µM; MIC (Candida krusei E28): > 250 µM; MIC (Candida glabrata 20/I): > 250 µM; MIC (Trichosporon asahii 1188): > 250 µM; MIC [10, 27]: > 250 µM; MIC [11]: > 250 µM; SI for TI [12]: inactive; MIC [12, 28]: > 250 µM; MIC [12, 29]: > 250 µM; SI for Candida sp. (Candida sp.): inactive
O=S(=O)(Nc1ncccn1)c1ccc(N=Cc2cc(Cl)cc(I)c2O)cc1 [Compound 2o, 4-[(5-Chloro-2-hydroxy-3-iodobenzylidene)amino]-N-(pyrimidin-2-yl)benzenesulfonamide]	15.6 µM (≈ 8.04 µg/mL)	31.2 µM (≈ 16.1 µg/mL)	250 µM (≈ 129 µg/mL)	250 µM (≈ 129 µg/mL)	500 µM (≈ 257 µg/mL)	125 µM (≈ 64.3 µg/mL)	125 µM (≈ 64.3 µg/mL)	500 µM (≈ 257 µg/mL)	500 µM (≈ 257 µg/mL)	125 µM (≈ 64.3 µg/mL)	250 µM (≈ 129 µg/mL)	250 µM (≈ 129 µg/mL)	62.5 µM (≈ 32.2 µg/mL)	125 µM (≈ 64.3 µg/mL)	125 µM (≈ 64.3 µg/mL)	7.81 µM (≈ 4.02 µg/mL)	500 µM (≈ 257 µg/mL)	500 µM (≈ 257 µg/mL)	500 µM (≈ 257 µg/mL)	500 µM (≈ 257 µg/mL)	MIC (Candida tropicalis 156): 7.81 µM (≈ 4.02 µg/mL); MIC (Candida krusei E28): 7.81 µM (≈ 4.02 µg/mL); MIC (Candida glabrata 20/I): 7.81 µM (≈ 4.02 µg/mL); MIC (Trichosporon asahii 1188): 7.81 µM (≈ 4.02 µg/mL); MIC ([10]; Aspergillus fumigatus, 231, 24 h, read-out: MIC AF 24 h): 62.5 µM (≈ 32.2 µg/mL); MIC ([10]; Aspergillus fumigatus, 231, 48 h, read-out: MIC AF 48 h): 62.5 µM (≈ 32.2 µg/mL); MIC [11]: 250 µM (≈ 129 µg/mL); MIC [12, 28]: 1.95 µM (≈ 1 µg/mL); MIC [12, 29]: 1.95 µM (≈ 1 µg/mL)
O=[N+]([O-])c1ccc(C=Nc2ccc(S(=O)(=O)Nc3ncccn3)cc2)o1 [Compound 2q, 4-{[(5-Nitrofuran-2-yl)methylene]amino}-N-(pyrimidin-2-yl)benzenesulfonamide]		31.2 µM (≈ 11.7 µg/mL)	> 500 µM	> 500 µM	250 µM (≈ 93.3 µg/mL)	125 µM (≈ 46.7 µg/mL)	125 µM (≈ 46.7 µg/mL)	500 µM (≈ 187 µg/mL)	500 µM (≈ 187 µg/mL)	125 µM (≈ 46.7 µg/mL)	250 µM (≈ 93.3 µg/mL)	250 µM (≈ 93.3 µg/mL)	62.5 µM (≈ 23.3 µg/mL)	62.5 µM (≈ 23.3 µg/mL)	125 µM (≈ 46.7 µg/mL)	250 µM (≈ 93.3 µg/mL)	500 µM (≈ 187 µg/mL)	500 µM (≈ 187 µg/mL)	500 µM (≈ 187 µg/mL)	500 µM (≈ 187 µg/mL)	MIC ([1]; CCM4516, 24 h, read-out: MIC SA 24 h): 125 µM (≈ 46.7 µg/mL); MIC ([1]; CCM4516, 48 h, read-out: MIC SA 48 h): 125 µM (≈ 46.7 µg/mL); MIC ([2]; H6966/08, incubation time not given, read-out: MIC for S. epidermidis): 31.2 µM (≈ 11.7 µg/mL); MIC (Candida tropicalis 156): 250 µM (≈ 93.3 µg/mL); MIC (Candida krusei E28): 250 µM (≈ 93.3 µg/mL); MIC (Candida glabrata 20/I): 250 µM (≈ 93.3 µg/mL); MIC (Trichosporon asahii 1188): 500 µM (≈ 187 µg/mL); MIC [10, 27]: 500 µM (≈ 187 µg/mL); MIC [11]: > 500 µM; MIC [12, 28]: 250 µM (≈ 93.3 µg/mL); MIC [12, 29]: 250 µM (≈ 93.3 µg/mL); MIC (M. tuberculosis and NTM): ≥ 62.5 µM
Nc1ccc(S(=O)(=O)Nc2ncccn2)cc1 [SDZ 1, sulfadiazine, reference compound]	> 500 µM	> 500 µM	> 500 µM	> 500 µM	> 500 µM	32 µM (≈ 8.01 µg/mL)	62.5 µM (≈ 15.6 µg/mL)	62.5 µM (≈ 15.6 µg/mL)	62.5 µM (≈ 15.6 µg/mL)	16 µM (≈ 4 µg/mL)	16 µM (≈ 4 µg/mL)	32 µM (≈ 8.01 µg/mL)	8 µM (≈ 2 µg/mL)	8 µM (≈ 2 µg/mL)	8 µM (≈ 2 µg/mL)		>500 µM	>500 µM	>500 µM	>500 µM	SI for TI [12]: inactive; SI for Candida sp. (Candida sp.): inactive

Reference: PMC6151383 (Molecules : A Journal of Synthetic Chemistry and Natural …, 2017)
